According to paper PMC7365701 (Journal of medicinal chemistry, 2020):
pEC50: −log10 of the molar value.

How the values were obtained:
human PPARα (hPPARα) [1] = biological target: T1, human PPARα (hPPARα) (Homo sapiens, UniProt Q07869)
T1 sequence (Q07869 1-468): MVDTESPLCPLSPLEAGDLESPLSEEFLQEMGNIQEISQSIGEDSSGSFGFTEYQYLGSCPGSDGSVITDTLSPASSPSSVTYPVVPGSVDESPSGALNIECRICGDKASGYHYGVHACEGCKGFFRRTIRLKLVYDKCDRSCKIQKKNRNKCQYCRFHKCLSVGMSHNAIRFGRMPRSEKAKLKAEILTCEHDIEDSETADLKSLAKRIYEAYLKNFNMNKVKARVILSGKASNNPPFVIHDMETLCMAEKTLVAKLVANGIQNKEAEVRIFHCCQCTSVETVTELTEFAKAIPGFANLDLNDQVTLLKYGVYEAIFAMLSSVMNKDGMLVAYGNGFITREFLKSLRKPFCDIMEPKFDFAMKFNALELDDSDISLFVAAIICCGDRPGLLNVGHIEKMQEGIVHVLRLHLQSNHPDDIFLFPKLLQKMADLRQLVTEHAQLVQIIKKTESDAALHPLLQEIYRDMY

[2] = biological target: human ether-á-go-go (hERG) potassium channel (Homo sapiens, UniProt Q12809); test: hERG automated whole cell patch-clamp; type: cell-based; details: tested at 0.1, 1 and 10 μM; ≥50% inhibition at 10 μM flagged as toxic
[3] = tested on: retinal vascular leakage in diabetic rats; test: STZ-induced diabetic rat model, retinal vascular permeability; type: in vivo, Brown Norway rat; details: daily i.p. for 28 days
PPARα = biological target: T2, PPARα (Homo sapiens, UniProt Q07869); test: Cellular thermal shift assay; type: cell-based; details: MIO-M1 cells, 45.5 °C
T2 sequence (Q07869 1-468): T1 sequence (Q07869 1-468)

[4] = biological target: T3, Ligand Binding Domain of PPARα (Homo sapiens, UniProt Q07869); test: Isothermal titration calorimetry; details: 4b vs 4a; 4u vs 4b
T3 sequence (Q07869 239-466 limits assumed): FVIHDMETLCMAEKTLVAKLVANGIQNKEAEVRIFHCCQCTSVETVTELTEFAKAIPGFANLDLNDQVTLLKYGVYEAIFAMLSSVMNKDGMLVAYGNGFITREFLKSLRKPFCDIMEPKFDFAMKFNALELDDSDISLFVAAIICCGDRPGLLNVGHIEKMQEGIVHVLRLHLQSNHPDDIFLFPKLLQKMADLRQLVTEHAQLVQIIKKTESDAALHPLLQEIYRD

[5] = Stability in human liver microsomes; type: in vitro ADME; details: compared with 4a (A91)
[6] = Stability in rat liver microsomes; type: in vitro ADME; details: compared with 4a (A91)
[7] = tested on: cytochrome P450 isoforms (1A, 2C9, 2C19, 2D6, and 3A); test: Time-dependent CYP inhibition in pooled human liver microsomes; type: in vitro ADME; details: 10 μM, pre-incubation ± NADPH
human PPARα (hPPARα) [8] = biological target: T1, human PPARα (hPPARα); test: cell-based; details: EC50 hPPARα (cellular potency), luciferase reporter

human ether-á-go-go (hERG) potassium channel, sequence (Q12809 whole entry): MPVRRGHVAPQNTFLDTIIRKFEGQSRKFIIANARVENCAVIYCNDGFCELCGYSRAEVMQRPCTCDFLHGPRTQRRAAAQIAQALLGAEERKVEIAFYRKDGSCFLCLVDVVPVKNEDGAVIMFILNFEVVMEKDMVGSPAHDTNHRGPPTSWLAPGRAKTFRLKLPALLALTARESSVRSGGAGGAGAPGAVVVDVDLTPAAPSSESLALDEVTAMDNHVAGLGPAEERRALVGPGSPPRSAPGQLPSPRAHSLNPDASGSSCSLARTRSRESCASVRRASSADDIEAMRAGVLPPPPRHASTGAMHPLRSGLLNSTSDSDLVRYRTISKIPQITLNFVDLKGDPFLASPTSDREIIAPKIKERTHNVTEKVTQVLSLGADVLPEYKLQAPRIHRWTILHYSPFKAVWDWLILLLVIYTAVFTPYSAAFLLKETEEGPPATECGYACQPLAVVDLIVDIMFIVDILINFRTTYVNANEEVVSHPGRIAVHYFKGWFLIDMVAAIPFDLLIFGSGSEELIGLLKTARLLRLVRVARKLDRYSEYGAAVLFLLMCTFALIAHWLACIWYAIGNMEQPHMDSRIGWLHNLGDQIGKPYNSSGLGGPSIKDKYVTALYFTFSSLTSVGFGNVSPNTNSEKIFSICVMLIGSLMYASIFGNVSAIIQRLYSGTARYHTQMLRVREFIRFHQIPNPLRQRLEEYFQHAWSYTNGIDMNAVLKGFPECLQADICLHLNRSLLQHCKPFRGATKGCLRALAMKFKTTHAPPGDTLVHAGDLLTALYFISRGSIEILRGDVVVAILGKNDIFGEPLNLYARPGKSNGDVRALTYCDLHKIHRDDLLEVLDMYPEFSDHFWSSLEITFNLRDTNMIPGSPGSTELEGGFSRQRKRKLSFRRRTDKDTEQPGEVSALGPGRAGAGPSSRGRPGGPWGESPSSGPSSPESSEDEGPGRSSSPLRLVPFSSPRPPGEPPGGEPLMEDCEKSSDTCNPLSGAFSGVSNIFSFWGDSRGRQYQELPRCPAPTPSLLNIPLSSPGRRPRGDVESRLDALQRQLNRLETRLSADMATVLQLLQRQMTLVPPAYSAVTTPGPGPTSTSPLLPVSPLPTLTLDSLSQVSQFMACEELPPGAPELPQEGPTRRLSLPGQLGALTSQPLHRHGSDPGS

SMILES: O=C(O)c1cccc(NCc2ccc(OCc3ccc(F)cc3F)cc2)c1 [Compound 4j, 3-((4-((2,4-difluorobenzyl)oxy)benzyl)amino)benzoic acid]
- SI (human PPARα (hPPARα) [1]; SI = EC50 (PPARγ or PPARδ) / EC50 (PPARα)): >175
- selectivity for hPPARα over other PPAR isoforms (human PPARα (hPPARα) [1]; over hPPARγ and hPPARδ, no agonism up to 100 μM): > 175 fold

SMILES: COc1ccc(COc2ccc(CNc3cccc(C(=O)O)c3)cc2)cc1 [Compound 4a, 3-((4-((4-methoxybenzyl)oxy)benzyl)amino)benzoic acid]
- hERG channel liability [2]: low potency
- hepatomegaly (liver phenotype) [3]: lack signs of hepatomegaly
- retinal vascular leakage ([3]; Evans blue tracer): reduces retinal vascular leakage in diabetic rats to the range of the non-diabetic cohort

SMILES: Cc1cc(CNc2cccc(C(=O)O)c2)ccc1OCc1ccc(F)cc1 [Compound 4u, 3-((4-((4-fluorobenzyl)oxy)-3-methylbenzyl)amino)benzoic acid]
- rescue of PPARα stability (PPARα): 3 fold
- improvement in binding affinity [4]: ~ 38 fold
- stability in liver microsomes [5]: significantly improved stability
- stability in liver microsomes [6]: significantly improved stability
- time-dependent (irreversible) inhibition of major CYP450 isoforms [7]: no signs of irreversible inhibition
- hERG channel liability [2]: not considered a hERG liability
- pEC50 (human PPARα (hPPARα) [8]): ~7.40

SMILES: O=C(O)c1cc(Cl)cc(NCc2ccc(OCc3ccc(F)cc3)cc2)c1 [Compound 4r, 3-chloro-5-((4-((4-fluorobenzyl)oxy)benzyl)amino)benzoic acid]
- Ratio (5/50) (human PPARα (hPPARα) [1]; ratio of relative light unit (RLU) signal at 5 μM and 50 μM compound): 0.11
